In brackets after ≈: the same amount, converted by molar mass.
Experiments:
[1] = tested on: Staphylococcus epidermidis; assay: In vitro antimicrobial activity against Staphylococcus epidermidis EPI1; assay type: functional
[2] = tested on: Enterococcus faecium; assay: In vitro antimicrobial activity against Streptococcus faecium X66; assay type: functional, streptococcus fae-cium
[3] = tested on: Streptococcus pyogenes; assay: In vitro antimicrobial activity against Streptococcus pyogenes C203; assay type: functional
[4] = tested on: Staphylococcus aureus; assay: In vitro antimicrobial activity against Staphylococcus aureus X1; assay type: functional
[5] = tested on: Haemophilus influenzae; assay: In vitro antimicrobial activity against Haemophilus influenzae.; assay type: functional
[6] = tested on: Streptococcus pyogenes; assay: In vivo effective dose against experimental infections in rodent caused by Streptococcus pyogenes C203 when administered sc; assay type: functional
[7] = tested on: Streptococcus pneumoniae; assay: In vitro antimicrobial activity against Streptococcus pneumoniae; assay type: functional

| SMILES | MIC [1] [µg/mL] | MIC [2] [µg/mL] | MIC [3] [µg/mL] | MIC [4] [µg/mL] | MIC [5] [µg/mL] | MIC [7] [µg/mL] | ED50 [6] [mg/kg] |
| --- | --- | --- | --- | --- | --- | --- | --- |
| CC[C@H]1OC(=O)C[C@@H](O)[C@H](C)[C@@H](O[C@@H]2O[C@H](C)[C@@H](O[C@H]3C[C@@](C)(O)[C@@H](O)[C@H](C)O3)[C@H](N(C)C)[C@H]2O)[C@@H](CCN=[N+]=[N-])C[C@@H](C)C(=O)/C=C/C(C)=C/[C@@H]1CO[C@@H]1O[C@H](C)[C@@H](O)[C@@H](OC)[C@H]1OC | 1 (≈ 1.06 µM) | 128 (≈ 136 µM) | 2 (≈ 2.12 µM) | 2 (≈ 2.12 µM) | > 128 | 32 (≈ 33.9 µM) | 6.3 |
| CC[C@H]1OC(=O)C[C@@H](O)[C@H](C)[C@@H](O[C@@H]2O[C@H](C)[C@@H](O[C@H]3C[C@@](C)(O)[C@@H](O)[C@H](C)O3)[C@H](N(C)C)[C@H]2O)[C@@H](CCN2C(=O)c3ccccc3C2=O)C[C@@H](C)C(=O)/C=C/C(C)=C/[C@@H]1C | 64 (≈ 74.7 µM) | 128 (≈ 149 µM) | 64 (≈ 74.7 µM) | 64 (≈ 74.7 µM) | > 128 | 8 (≈ 9.33 µM) | – |
| CC[C@H]1OC(=O)C[C@@H](O)[C@H](C)[C@@H](O[C@@H]2O[C@H](C)[C@@H](O[C@H]3C[C@@](C)(O)[C@@H](O)[C@H](C)O3)[C@H](N(C)C)[C@H]2O)[C@@H](CCNCCc2ccccc2)C[C@@H](C)C(=O)/C=C/C(C)=C/[C@@H]1C | 4 (≈ 4.81 µM) | 8 (≈ 9.63 µM) | 2 (≈ 2.41 µM) | 4 (≈ 4.81 µM) | 64 (≈ 77 µM) | 1 (≈ 1.2 µM) | – |
| CC[C@H]1OC(=O)C[C@@H](O)[C@H](C)[C@@H](O[C@@H]2O[C@H](C)[C@@H](O[C@H]3C[C@@](C)(O)[C@@H](O)[C@H](C)O3)[C@H](N(C)C)[C@H]2O)[C@@H](CCF)C[C@@H](C)C(=O)/C=C/C(C)=C/[C@@H]1CO[C@@H]1O[C@H](C)[C@@H](O)[C@@H](OC)[C@H]1OC | 1 (≈ 1.09 µM) | > 128 | 4 (≈ 4.35 µM) | 1 (≈ 1.09 µM) | > 128 | 64 (≈ 69.6 µM) | – |
| CC[C@H]1OC(=O)C[C@@H](O)[C@H](C)[C@@H](O[C@@H]2O[C@H](C)[C@@H](O[C@H]3C[C@@](C)(O)[C@@H](O)[C@H](C)O3)[C@H](N(C)C)[C@H]2O)[C@@H](CCNCCc2ccccc2)C[C@@H](C)C(=O)/C=C/C(C)=C/[C@@H]1CO | 16 (≈ 18.9 µM) | 32 (≈ 37.8 µM) | 8 (≈ 9.44 µM) | 16 (≈ 18.9 µM) | 64 (≈ 75.6 µM) | 4 (≈ 4.72 µM) | – |
| CC[C@H]1OC(=O)C[C@@H](O)[C@H](C)[C@@H](O[C@@H]2O[C@H](C)[C@@H](O[C@H]3C[C@@](C)(O)[C@@H](O)[C@H](C)O3)[C@H](N(C)C)[C@H]2O)[C@@H](CCOc2ccc(C(=O)c3ccccc3)cc2)C[C@@H](C)C(=O)/C=C/C(C)=C/[C@@H]1CO[C@@H]1O[C@H](C)[C@@H](O)[C@@H](OC)[C@H]1OC | 2 (≈ 1.82 µM) | 4 (≈ 3.64 µM) | 2 (≈ 1.82 µM) | 1 (≈ 0.91 µM) | > 128 | 1 (≈ 0.91 µM) | – |
| CC[C@H]1OC(=O)C[C@@H](O)[C@H](C)[C@@H](O[C@@H]2O[C@H](C)[C@@H](O[C@H]3C[C@@](C)(O)[C@@H](O)[C@H](C)O3)[C@H](N(C)C)[C@H]2O)[C@@H](CCSc2ccccc2)C[C@@H](C)C(=O)/C=C/C(C)=C/[C@@H]1CO[C@@H]1O[C@H](C)[C@@H](O)[C@@H](OC)[C@H]1OC | 2 (≈ 1.98 µM) | > 128 | 4 (≈ 3.96 µM) | 1 (≈ 0.99 µM) | > 128 | 64 (≈ 63.3 µM) | – |
| CC[C@H]1OC(=O)C[C@@H](O)[C@H](C)[C@@H](O[C@@H]2O[C@H](C)[C@@H](O[C@H]3C[C@@](C)(O)[C@@H](O)[C@H](C)O3)[C@H](N(C)C)[C@H]2O)[C@@H](CCOC(C(F)(F)F)C(F)(F)F)C[C@@H](C)C(=O)/C=C/C(C)=C/[C@@H]1CO[C@@H]1O[C@H](C)[C@@H](O)[C@@H](OC)[C@H]1OC | 4 (≈ 3.74 µM) | > 128 | 8 (≈ 7.49 µM) | 4 (≈ 3.74 µM) | > 128 | 32 (≈ 30 µM) | – |
| CC[C@H]1OC(=O)C[C@@H](O)[C@H](C)[C@@H](O[C@@H]2O[C@H](C)[C@@H](O)[C@H](N(C)C)[C@H]2O)[C@@H](CCN2C(=O)c3ccccc3C2=O)C[C@@H](C)C(=O)/C=C/C(C)=C/[C@@H]1CO | 4 (≈ 5.49 µM) | 16 (≈ 22 µM) | 64 (≈ 87.8 µM) | 4 (≈ 5.49 µM) | 64 (≈ 87.8 µM) | 64 (≈ 87.8 µM) | – |
| CC[C@H]1OC(=O)C[C@@H](O)[C@H](C)[C@@H](O[C@@H]2O[C@H](C)[C@@H](O[C@H]3C[C@@](C)(O)[C@@H](O)[C@H](C)O3)[C@H](N(C)C)[C@H]2O)[C@@H](CCI)C[C@@H](C)C(=O)/C=C/C(C)=C/[C@@H]1CO[C@@H]1O[C@H](C)[C@@H](O)[C@@H](O)[C@H]1OC | 2 (≈ 1.97 µM) | 128 (≈ 126 µM) | 4 (≈ 3.94 µM) | 2 (≈ 1.97 µM) | 128 (≈ 126 µM) | 16 (≈ 15.8 µM) | – |
| CC[C@H]1OC(=O)C[C@@H](O)[C@H](C)[C@@H](O[C@@H]2O[C@H](C)[C@@H](O[C@H]3C[C@@](C)(O)[C@@H](O)[C@H](C)O3)[C@H](N(C)C)[C@H]2O)[C@@H](CCOc2ccc(C=O)cc2)C[C@@H](C)C(=O)/C=C/C(C)=C/[C@@H]1CO[C@@H]1O[C@H](C)[C@@H](O)[C@@H](OC)[C@H]1OC | 1 (≈ 0.978 µM) | 128 (≈ 125 µM) | 1 (≈ 0.978 µM) | 1 (≈ 0.978 µM) | > 128 | 16 (≈ 15.7 µM) | – |
| CC[C@H]1OC(=O)C[C@@H](O)[C@H](C)[C@@H](O[C@@H]2O[C@H](C)[C@@H](O[C@H]3C[C@@](C)(O)[C@@H](O)[C@H](C)O3)[C@H](N(C)C)[C@H]2O)[C@@H](CCN2C(=O)c3ccccc3C2=O)C[C@@H](C)C(=O)/C=C/C(C)=C/[C@@H]1CO | 32 (≈ 36.7 µM) | > 128 | 128 (≈ 147 µM) | 64 (≈ 73.3 µM) | > 128 | 16 (≈ 18.3 µM) | – |
| CC[C@H]1OC(=O)C[C@@H](O)[C@H](C)[C@@H](O[C@@H]2O[C@H](C)[C@@H](O[C@H]3C[C@@](C)(O)[C@@H](O)[C@H](C)O3)[C@H](N(C)C)[C@H]2O)[C@@H](CCOc2ncnc3ccccc23)C[C@@H](C)C(=O)/C=C/C(C)=C/[C@@H]1CO[C@@H]1O[C@H](C)[C@@H](O)[C@@H](OC)[C@H]1OC | 1 (≈ 0.956 µM) | 32 (≈ 30.6 µM) | 4 (≈ 3.82 µM) | 0.5 (≈ 0.478 µM) | > 128 | 4 (≈ 3.82 µM) | – |
| CC[C@H]1OC(=O)C[C@@H](O)[C@H](C)[C@@H](O[C@@H]2O[C@H](C)[C@@H](O[C@H]3C[C@@](C)(O)[C@@H](O)[C@H](C)O3)[C@H](N(C)C)[C@H]2O)[C@@H](CCOc2cccc(N(C)C)c2)C[C@@H](C)C(=O)/C=C/C(C)=C/[C@@H]1CO[C@@H]1O[C@H](C)[C@@H](O)[C@@H](OC)[C@H]1OC | 1 (≈ 0.964 µM) | 64 (≈ 61.7 µM) | 1 (≈ 0.964 µM) | 1 (≈ 0.964 µM) | 128 (≈ 123 µM) | 8 (≈ 7.71 µM) | – |

The next lines start with results.

| MIC [1] [µg/mL] | MIC [2] [µg/mL] | MIC [3] [µg/mL] | MIC [4] [µg/mL] | MIC [5] [µg/mL] | MIC [7] [µg/mL] | SMILES | ED50 [6] [mg/kg] |
| --- | --- | --- | --- | --- | --- | --- | --- |
| 0.5 (≈ 0.541 µM) | 32 (≈ 34.6 µM) | 0.5 (≈ 0.541 µM) | 0.5 (≈ 0.541 µM) | 64 (≈ 69.3 µM) | 4 (≈ 4.33 µM) | CC[C@H]1OC(=O)C[C@@H](O)[C@H](C)[C@@H](O[C@@H]2O[C@H](C)[C@@H](O)[C@H](N(C)C)[C@H]2O)[C@@H](CCOC(C(F)(F)F)C(F)(F)F)C[C@@H](C)C(=O)/C=C/C(C)=C/[C@@H]1CO[C@@H]1O[C@H](C)[C@@H](O)[C@@H](OC)[C@H]1OC | > 10 |
| 0.5 (≈ 0.635 µM) | 16 (≈ 20.3 µM) | 0.5 (≈ 0.635 µM) | 0.5 (≈ 0.635 µM) | – | 4 (≈ 5.08 µM) | CC[C@H]1OC(=O)C[C@@H](O)[C@H](C)[C@@H](O[C@@H]2O[C@H](C)[C@@H](O)[C@H](N(C)C)[C@H]2O)[C@@H](CCOC)C[C@@H](C)C(=O)/C=C/C(C)=C/[C@@H]1CO[C@@H]1O[C@H](C)[C@@H](O)[C@@H](OC)[C@H]1OC | > 6.3 |
| 0.5 (≈ 0.542 µM) | 8 (≈ 8.68 µM) | 0.5 (≈ 0.542 µM) | 0.5 (≈ 0.542 µM) | – | 1 (≈ 1.08 µM) | CCOC(=O)c1ccc(OCC[C@H]2C[C@@H](C)C(=O)/C=C/C(C)=C/[C@H](CO[C@@H]3O[C@H](C)[C@@H](O)[C@@H](OC)[C@H]3OC)[C@@H](CC)OC(=O)C[C@@H](O)[C@H](C)[C@H]2O[C@@H]2O[C@H](C)[C@@H](O)[C@H](N(C)C)[C@H]2O)cc1 | > 10 |
| 1 (≈ 0.984 µM) | 128 (≈ 126 µM) | 1 (≈ 0.984 µM) | 0.5 (≈ 0.492 µM) | > 128 | 32 (≈ 31.5 µM) | CC[C@H]1OC(=O)C[C@@H](O)[C@H](C)[C@@H](O[C@@H]2O[C@H](C)[C@@H](O[C@H]3C[C@@](C)(O)[C@@H](O)[C@H](C)O3)[C@H](N(C)C)[C@H]2O)[C@@H](CCSc2nnnn2C)C[C@@H](C)C(=O)/C=C/C(C)=C/[C@@H]1CO[C@@H]1O[C@H](C)[C@@H](O)[C@@H](OC)[C@H]1OC | > 6.3 |
| 0.5 (≈ 0.476 µM) | 64 (≈ 60.9 µM) | 2 (≈ 1.9 µM) | 1 (≈ 0.951 µM) | 128 (≈ 122 µM) | 1 (≈ 0.951 µM) | CC[C@H]1OC(=O)C[C@@H](O)[C@H](C)[C@@H](O[C@@H]2O[C@H](C)[C@@H](O[C@H]3C[C@@](C)(O)[C@@H](O)[C@H](C)O3)[C@H](N(C)C)[C@H]2O)[C@@H](CCNc2ccc(OC(C)=O)cc2)C[C@@H](C)C(=O)/C=C/C(C)=C/[C@@H]1CO[C@@H]1O[C@H](C)[C@@H](O)[C@@H](OC)[C@H]1OC | – |
| 0.25 (≈ 0.285 µM) | 4 (≈ 4.56 µM) | 1 (≈ 1.14 µM) | 0.25 (≈ 0.285 µM) | 16 (≈ 18.2 µM) | 1 (≈ 1.14 µM) | CC[C@H]1OC(=O)C[C@@H](O)[C@H](C)[C@@H](O[C@@H]2O[C@H](C)[C@@H](O)[C@H](N(C)C)[C@H]2O)[C@@H](CCOc2ccc(C=O)cc2)C[C@@H](C)C(=O)/C=C/C(C)=C/[C@@H]1CO[C@@H]1O[C@H](C)[C@@H](O)[C@@H](OC)[C@H]1OC | – |
| 0.5 (≈ 0.475 µM) | 8 (≈ 7.6 µM) | 0.5 (≈ 0.475 µM) | 0.5 (≈ 0.475 µM) | > 128 | 0.5 (≈ 0.475 µM) | CC[C@H]1OC(=O)C[C@@H](O)[C@H](C)[C@@H](O[C@@H]2O[C@H](C)[C@@H](O[C@H]3C[C@@](C)(O)[C@@H](O)[C@H](C)O3)[C@H](N(C)C)[C@H]2O)[C@@H](CCOc2ccc(OC(C)=O)cc2)C[C@@H](C)C(=O)/C=C/C(C)=C/[C@@H]1CO[C@@H]1O[C@H](C)[C@@H](O)[C@@H](OC)[C@H]1OC | – |
